Publication PMC5663395, “Chemical Validation of Methionyl-tRNA Synthetase as a Druggable Target in Leishmania donovani” (ACS Infectious Diseases, 2017)
Where two headings read alike, the source gives them in different places.

Legend:
[1] = test system: L. donovani axenic amastigotes; assay: Leishmania axenic amastigote viability assay; assay type: cell-based, Leishmania donovani; conditions: Leishmania donovani
Experimental: (§1) carried out as described above using 5%, 10% and 20% FBS in the media. To examine the effect of the methionine concentration on the potency of DDD806905 parasites were grown in the presence of drug and in the presence (or absence) of 20-fold excess methionine (0.3 g/l). IC50 curve fitting was undertaken in GraFit version 6.0 (Erithacus Software) using a four-parameter logistic dose-response curve (equation 6), with s the slope.
(§2) Leishmania Axenic Amastigote Assay
(§3) The Leishmania axenic amastigote assay was performed using the method published in Nühs et al 15.
(§4) Leishmania Intracellular Amastigote Assay
(§5) The intramacrophage Leishmania assay was performed using a modified version of the method described in De Rycker et al 16. […]
(§6) amphotericin B was included. Controls were as follows: columns 11 and 12: DMSO, columns 23 and 24: amphotericin B (final concentration 2 µM). 350 nl of compound was pre-dispensed into 384-well sterile intermediary plates. To the intermediary plates, 35 µl of THP-1 media was added and plates were shaken for >5 min to ensure complete mixing. THP-1 cells (8,000 per well, 50 µl) were plated into black clear-bottom 384-well plates (Corning) in presence of 20 nM phorbol 12-myristate 13- […]
in a humidified incubator for 75 h. The cells were then washed with 450 µl sterile phosphate buffered saline (PBS) supplemented with 1 mM CaCl2, 0.5 mM MgCl2, 0.1% (w/v) bovine serum albumin (PBS-A) and amastigotes were added to all wells at a multiplicity of infection of 5 (40,000 amastigotes per well). After 40 min at room temperature, plates were returned to the incubator.
Amastigotes were incubated in the presence of THP-1 macrophages for 16 h. Any remaining extracellular amastigotes were subsequently removed by washing with PBS-A followed by addition of 25 µl of the compound pre-dilutions using an Ipette-pro pipetting station (FluidX). The final dilution of each compound was 200-fold. Plates were incubated for 96 h and then washed (250 µl PBS-A) and fixed (4 % (v/v) formaldehyde-PBS, 30 min, room temperature). After fixation, the wells were washed with 250 µl PBS, stained (10 µg/ml DAPI, 0.4 µg/mL HCS Cellmask Deep Red in PBS + 0.1% (v/v) Triton X-100, 30 min, room temperature) and washed with 250 µl PBS. Finally, PBS + 0.05% (v/v) thimerosal was added to the wells, the plates were sealed and imaged on a high-content microscope (GE IN Cell 2000) using a 10x objective. Image analysis was carried out with GE IN Cell Analyzer 1000 Workstation using the “Multi Target Analysis” module. For each well, i) THP-1 cell count (cytotoxicity readout) and ii) average number of amastigotes per cell (potency readout) were […]

[2] = THP-1 cytotoxicity readout of intramacrophage assay; assay type: cell-based; conditions: human, Leishmania infected, PMA-differentiated THP-1 cells; read-out: THP-1 EC50 (toxicity)
Experimental: as §1, §2, §3, §4, §5
as §6, with “mixing.” for “mixing. THP-1 cells (8,000 per well, 50 µl) were plated into black clear-bottom 384-well plates (Corning) in presence of 20 nM phorbol 12-myristate 13-”
Amastigotes were incubated in the presence of THP-1 macrophages for 16 h. […] For each well, i) THP-1 cell count (cytotoxicity readout) and ii) average number of amastigotes per cell (potency readout) were […]

[3] = test system: L. donovani promastigotes; assay: Leishmania promastigote viability assay; assay type: cell-based, Leishmania donovani; conditions: Leishmania donovani
Experimental: After suitable sample preparation, the
In vivo Leishmaniasis Animal Model […]
administered twice daily over the same interval.
Parasite load is expressed in Leishman-
Knock-out and overexpressor generation
Leishmania Promastigote Assay
Serum shift experiments were […]
as §1, §2, §3, §4, §5
amphotericin B was included. Controls were as follows: columns 11 and 12: DMSO, columns 23 and 24: amphotericin B (final concentration 2 µM). 350 nl of compound was pre-dispensed into 384-well sterile intermediary plates. To the intermediary plates, 35 µl of THP-1 media was added and plates were shaken for >5 min to ensure complete mixing. THP-1 cells (8,000 per well, 50 µl) were plated into black clear-bottom 384-well plates (Corning) in presence of 20 nM phorbol 12-myristate 13-

THP-1 lysosomes = assay: Lysosomotropism assay (LysoTracker Red competition); assay type: cell-based, human; conditions: PMA-differentiated THP-1 cells, 30 min
Experimental: calculated, both in terms of pEC50 values. MIC (minimum inhibitory concentration) values are defined as the lowest concentration tested at which maximal inhibition is reached.
THP-1 cells were differentiated in 96-well plates with PMA as described above. Following differentiation the cells were treated for 30 min with dose-response curves of test compounds in presence of 100 nM LysoTracker Red DND-99 (Thermo Fisher) and 5 µg/ml Hoechst 33342. Next cells were washed 3 times with Hanks Buffered Saline Solution (Gibco) and imaged on a Perkin Elmer Operetta system. An image analysis algorithm to measure mean Lysotracker Red DND-99 intensity per cell was developed in Columbus. Mean Intensity was normalised using a no dye control (100% effect) and DMSO treated wells stained with Lysotracker Red DND-99 (0% effect control). Dose-response curves were fitted for the test compounds using a four-parameter equation (equation 5 above) and constrained to 0 and 100% where necessary.
To measure the pKa of DDD806905, a fast UV-metric method was performed using a Sirius T3 instrument (Sirius Analytical, U.K.). The calculation of the pKa was determined using the Sirius T3 refine software (Sirius Analytical, U.K.). In brief, the UV-metric pKa method is based on measuring pH during an acid-base titration and monitoring UV absorbance shift. The ionisation curve (Bjerrum curve) was then used to determine the pH where exactly 50 % of neutral and 50 % of ionised species was present. DDD806905 must be fully dissolved throughout the titration and so the titration is set to start at the pH where DDD806905 is in its fully ionised state. The appearance of precipitate was monitored throughout the experiment by a turbidity sensing device. […] The pKas of DDD806905 was determined at the pH where there was maximal change in UV absorbance with respect to pH. […]
LogD7.4 values were quantified using a Sirius T3 instrument (Sirius Analytical, U.K.). […] The instrument software calculated the pH of each data point using mass and charge balance equations and then fitted this theoretical data to the experimental data. […]

SMILES: Cl.Cl.O=c1nc(NCCCNCc2cc3c(Cl)cc(Cl)cc3[nH]2)[nH]c2ccccc12 [DDD806905, 2-((3-(((4,6-dichloro-1H-indol-2-yl)methyl)amino)propyl)amino)quinazolin-4(1H)-one dihydrochloride]
- EC50 ([1]; Table 1, read-out: Leishmania Axenic Amastigote EC50): 14 µM
- EC50 ([1]; media pH 5.6, read-out: axenic amastigote EC50): 13.7 µM
- EC50 at 96 h [2]: 10 µM
- EC50 ([3]; 10% serum, read-out: promastigote EC50): 0.27 µM
- EC50 ([3]; Supplementary Table 1, read-out: Leishmania Promastigote EC50): 0.44 µM
- EC50 ([3]; absence of excess methionine, read-out: promastigote EC50): 0.46 µM
- EC50 ([3]; extrapolated to 100% serum, read-out: predicted promastigote EC50): 1.75 µM
- EC50 ([3]; extrapolated to no serum, read-out: predicted promastigote EC50): 0.12 µM
- EC50 ([3]; presence of excess methionine (2 mM), read-out: promastigote EC50): 1.9 µM
- competition with lysotracker red accumulation in THP-1 lysosomes (THP-1 lysosomes): did compete with lysotracker red accumulation
